In test [1] the target is T1, GID4 (Homo sapiens, UniProt Q8IVV7).
T1 construct: residues 116-300, N-terminal 6xHis-SUMO tag (DSF construct)
T1 sequence (Q8IVV7 1-300): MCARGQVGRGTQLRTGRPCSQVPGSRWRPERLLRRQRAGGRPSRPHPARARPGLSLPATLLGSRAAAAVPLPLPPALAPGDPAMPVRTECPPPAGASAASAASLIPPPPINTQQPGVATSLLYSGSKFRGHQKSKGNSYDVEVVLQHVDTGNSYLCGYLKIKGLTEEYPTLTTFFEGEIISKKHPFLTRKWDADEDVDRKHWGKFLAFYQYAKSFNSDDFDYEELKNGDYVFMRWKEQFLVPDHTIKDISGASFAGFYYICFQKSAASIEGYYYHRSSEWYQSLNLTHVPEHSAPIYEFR
On the set-up: Differential scanning fluorimetry, thermal shift of GID4. The following applies: binder. The protocol:
Following the identification of the binding pocket and the key interactions of the initial fragment, we initiated the synthesis of a series of analogs to explore the structure-activity relationship (SAR) (Table 1). The resulting changes in affinity were evaluated using surface plasmon resonance (SPR) and differential scanning fluorimetry (DSF). […] In the next step, we replaced the 3-Cl group to find an additional potency boost. […] MATERIALS AND METHODS Recombinant Protein Expression and Purification GID4 Expression and Purification Human Glucose-induced degradation protein 4 homolog (Gid4, UniProt ID: Q8IVV7) residues 124-289 were cloned into a vector to generate a N-terminal 6xHis-SUMO-tag for crystallography studies, residues 116-300 were cloned into a vector to generate a N-terminal 6xHis-SUMO-tag for DSF studies and residues 116-300 were cloned into a vector to generate a N-terminal Strep-SUMO-3C-6xHis-AVI-tag for SPR experiments. All constructs were verified by sequencing. Protein was expressed by transforming plasmid into chemically competent recombinant E. coli BL21(DE3) strain. E coli was cultured in LB medium supplemented with 50 µg/mL kanamycin in shaker flasks at 37 °C and 160 rpm. Once an optical density at 600 nm (OD600) reached 0.5-0.6, protein expression was induced by an addition of 0.1 mM IPTG.

Test [2] concerns the target T2, GID4 (Homo sapiens, UniProt Q8IVV7).
T2 construct: residues 116-300; N-terminal Strep-SUMO-3C-6xHis-Avi, HRV-3C cleaved, Avi-tag kept and biotinylated; E. coli BL21(DE3)
T2 sequence (Q8IVV7 116-300): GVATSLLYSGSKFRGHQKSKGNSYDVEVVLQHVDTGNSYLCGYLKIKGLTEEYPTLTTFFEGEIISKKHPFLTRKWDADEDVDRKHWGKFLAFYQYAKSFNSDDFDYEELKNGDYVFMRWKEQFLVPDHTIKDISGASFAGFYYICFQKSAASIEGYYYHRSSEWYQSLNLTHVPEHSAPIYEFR
Kind of test: SPR, steady-state affinity. Type of test: binding. From the text: SPR, steady-state affinity on GID4
(In SPR one partner is held on a chip, and binding of the other changes the refractive index at the surface.)

On to `NC(=Nc1ccccc1)N1CCCCC1` [compound 1], for which the “ΔTm by DSF (°C)” value at GID4 [1] was determined as 1.0 ± 0.06 °C. Also, the Kd at GID4 [2] came to 78.8 µM.

A word on the Kd: it is the constant that tells how readily two partners part at equilibrium. Low values mean tighter binding, high ones weaker binding.

(Values after doi:10.1101/2025.07.01.662521v3, “Ligand-induced Conformational Plasticity of the CTLH E3 Ligase Receptor GID4” (biorxiv, 2026).)
